In article PMC12257544, “Fluorescent Isostere (Fluostere) of the Carboxylate: Design of hDHODH Fluorescent Inhibitors as Proof of Concept” (Journal of Medicinal Chemistry, 2025):
“And” between values parts separate entries of the source, which are not always exact repeats. Equal values may be shown once.

What was measured:
[1] = Photophysical characterization (absorption, emission, QY, lifetime); assay type: physicochemical; settings: for Lifetime / QY (luminescence quantum yield) / Stokes shift / λabs / λem: in ACN
Method: UV–Vis absorption spectra were recorded on a Cary60 spectrometer. Photoemission spectra, luminescence lifetimes, and quantum yields were acquired with a HORIBA Jobin Yvon IBH Fluorolog-TCSPC spectrofluorometer equipped with a Quanta-φ integrating sphere. […] Emission-decay data were collected in 2048 channels to 10000 counts in the peak channel. IRF was measures using colloidal silica suspension in H2O to scatter light. Data were analyzed with the software DAS6 (TCSPC decay-analysis software) using a nonlinear least-squares method to fit of the decay to a sum of exponentials. The value of χ^2, residuals and the autocorrelation function (Durbin-Watson parameter) were used to determine the quality of the fit. For measurements in the presence of hDHODH, 11a was incubated, at 1 μM concentration in TRIS Buffer 0.1 mM (pH 8) with 0.1% DMSO, alone or with different concentrations of recombinant protein ranging from 31.5 to 504 nM concentration. After 5 min incubation UV–Vis absorption spectra were recorded on a Cary60 spectrophotometer and photoemission spectra were acquired with a HORIBA Jobin Yvon IBH Fluorolog-TCSPC spectrofluorometer with excitation λ of 366 nm and maximum of emission at 500 nm; a.u. data were analyzed with GraphPad Prism using One Site – Specific Binding equation.

[2] = molecular target: hDHODH enzyme GST-tagged (Homo sapiens, UniProt Q02127); experiment: hDHODH inhibition assay (DCIP reduction)
Method: The enzyme (around 60 nM) was preincubated for 5 min at 37 °C in Tris-buffer solution (pH 8.0) with coenzyme Q10 (100 μM), tested compounds at different concentrations (final DMSO concentration 0.1% v/v), and DCIP (50 μM). The reaction was initiated by addition of DHO (500 μM) and the reduction was monitored at λ = 650 nm. […] Values are means ± SE of three independent experiments.

[3] = design: method as in doi:10.1021/cr00002a004; settings: substituent in position 3; cited from earlier work
[4] = Experimental pKa; assay type: physicochemical
[5] = test system: THP-1 cells; experiment: Co-localization competition assay with Bay2402234 (Manders coefficient); assay type: cell-based, human; settings: THP-1 cells, 10 μM, 3 h
Method: Colocalization between hDHODH inhibitors and mitochondria was quantified using Manders coefficient (Figure D).
THP-1 cells were incubated for 3 h with hDHODHi 11a and Bay240223410 at 10 μM, either alone or in combination. After incubation, the cells were washed and stained with Red-MitoTracker CMXRos (Thermo Fisher, Carlsbad, CA, USA) at a concentration of 100 nM for 30 min at 37 °C. Cells were imaged with a Leica TCS SP8 confocal system (Leica Microsystems) equipped with 4 excitation lasers (405 Diode, Argon, DPSS561, HeNe633). Images were acquired with a HCX PL APO 63×/1.4 NA oil-immersion objective with a resolution of 81 nm × 81 nm and were processed and analyzed with ImageJ software (Rasband, W.S., U.S. National Institutes of Health, Bethesda, […]). In particular, colocalization was analyzed with JACoP plugin and Manders’ coefficient was calculated

Chain of hDHODH enzyme GST-tagged (Q02127 whole entry): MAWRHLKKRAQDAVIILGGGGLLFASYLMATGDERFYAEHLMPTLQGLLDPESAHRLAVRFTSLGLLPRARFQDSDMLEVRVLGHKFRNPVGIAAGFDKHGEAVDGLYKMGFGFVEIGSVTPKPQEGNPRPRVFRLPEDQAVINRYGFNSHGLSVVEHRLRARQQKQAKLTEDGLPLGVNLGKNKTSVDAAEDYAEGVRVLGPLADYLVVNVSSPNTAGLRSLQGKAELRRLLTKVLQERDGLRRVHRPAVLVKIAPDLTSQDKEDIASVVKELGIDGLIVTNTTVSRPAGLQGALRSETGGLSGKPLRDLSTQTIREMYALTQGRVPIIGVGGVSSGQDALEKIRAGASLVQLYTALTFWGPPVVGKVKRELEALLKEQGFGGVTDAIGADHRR

Row | Compound | Lifetime [1] [ns] | QY (luminescence quantum yield) [1] | Stokes shift [1] [cm^–1] | λabs [1] [nm] | λem [1] | emission in the solid state [1] | pKa [4] | IC50 [2] [µM] | σ p (Hammett substituent constant) [3] | fluorescence at the wavelength specific for 11a [5]
1 | Oc1nn2ccccc2c1-c1ccc2cc(-c3ccccc3)cnc2c1 [Compound 13, 3-(3-Phenylquinolin-7-yl)pyrazolo[1,5-a]pyridin-2-ol] | 3.7 | 0.74 | 5288 | 370 | 460 nm | – | – | 33 | – | –
2 | CCOC(=O)c1c(=O)n(Cc2ccccc2)n2ccccc12 [Compound 2d, Ethyl 1-benzyl-2-oxo-1,2-dihydropyrazolo[1,5-a]pyridine-3-carboxylate] | 12 | 0.30 | 6414 | 348 | 448 nm | – | – | – | – | –
3 | O=[N+]([O-])c1c(O)nn2ccccc12 [Compound 3, 3-Nitropyrazolo[1,5-a]pyridin-2-ol] | – | – | – | 361 | n.e. ^a | – | – | – | 0.78 | –
4 | COc1nn2ccccc2c1-c1ccc2ccccc2c1 [Compound 6, 2-Methoxy-3-(naphthalen-2-yl)pyrazolo[1,5-a]pyridine] | 4.3 | 0.13 | 7480 | 345 | 465 nm | – | – | – | – | –
5 | COc1cc2ccccn2n1 [Compound 1a, 2-Methoxypyrazolo[1,5-a]pyridine] | – | – | – | 305 | 400 nm | – | – | – | – | –
6 | Oc1nn2ccccc2c1-c1ccc2cc(-c3ccccc3)ccc2n1 [Compound 12, 3-(6-Phenylquinolin-2-yl)pyrazolo[1,5-a]pyridin-2-ol] | 2.3 | <0.01 | 2385 | 390 | 430 nm | – | – | 16 | – | –
7 | Cn1c(=O)cc2ccccn21 [Compound 1b, 1-Methylpyrazolo[1,5-a]pyridin-2(1H)-one] | – | – | – | 335 | 465 nm | – | – | – | – | –
8 | CCOC(=O)c1c(OCc2ccccc2)nn2ccccc12 [Compound 2c, Ethyl 2-(Benzyloxy) Pyrazolo[1,5-a]pyridine-3-carboxylate] | 9 | 0.43 | 5942 | 310 | 380 nm | – | – | – | – | –
9 | CCOC(=O)c1c(=O)n(C)n2ccccc12 [Compound 2b, Ethyl 1-methyl-2-oxo-1,2-dihydropyrazolo[1,5-a]pyridine-3-carboxylate] | 11 | 0.26 | 6514 | 345 | 445 nm | – | – | – | – | –
10 | Oc1cc2ccccn2n1 [Compound 1, Pyrazolo[1,5-a]pyridin-2-ol] | 12 | 0.21 | 7567 | 310 | 405 nm | – | ~5 | – | – | –
11 | CCOC(=O)c1c(OC)nn2ccccc12 [Compound 2a, Ethyl 2-methoxypyrazolo[1,5-a]pyridine-3-carboxylate] | 9 | 0.45 | 5942 | 310 | 380 nm | – | – | – | – | –
12 | CCn1c(CO)nn(-c2cc(O[C@@H](C)C(F)(F)F)c(C(=O)Nc3c(F)cccc3Cl)cc2F)c1=O [Bay2402234, reference compound] | – | – | – | – | – | – | – | – | – | no detectable fluorescence

Further lines, with some results ahead:

Row | Lifetime [1] [ns] | QY (luminescence quantum yield) [1] | Stokes shift [1] [cm^–1] | λabs [1] [nm] | λem [1] | emission in the solid state [1] | pKa [4] | Compound | IC50 [2] [µM] | σ p (Hammett substituent constant) [3] | fluorescence at the wavelength specific for 11a [5]
13 | 3.5 | <0.01 | 5750 | 370 | 470 nm | – | – | COc1nn2ccccc2c1/C=C/c1ccc(S(C)(=O)=O)cc1 [Compound 5c, (E)-2-methoxy-3-(4-(methylsulfonyl)styryl)pyrazolo[1,5-a]pyridine] | – | – | –
14 | 5.5 | 0.42 | 5868 | 356 | 450 nm | – | – | COc1nn2ccccc2c1-c1ccc2cccnc2c1 [Compound 7b, 7-(2-Methoxypyrazolo[1,5-a]pyridin-3-yl)quinoline] | – | – | –
15 | <0.1 | <0.01 | 8368 | 426 | 662 nm | – | – | COc1nn2ccccc2c1/C=C/c1ccc([N+](=O)[O-])cc1 [Compound 5e, (E)-2-methoxy-3-(4-nitrostyryl) Pyrazolo[1,5-a]pyridine] | – | – | –
16 | 3.7 | 0.06 | 5255 | 338 | 411 nm | – | – | CCOC(=O)c1c(O)nn2c(N(C)C)cccc12 [Compound 8a, Ethyl 7-(Dimethylamino)-2-hydroxypyrazolo[1,5-a]pyridine-3-carboxylate] | – | – | –
17 | – | – | – | 395 | n.e. | yellow light | – | COC(=O)/C(C#N)=C/c1c(OC)nn2ccccc12 [Compound 4b, Methyl (e)-2-cyano-3-(2-methoxypyrazolo[1,5-a]pyridin-3-yl)acrylate] | – | – | –
18 | 5.3 | 0.24 | 6832 | 350 | 460 nm | – | – | COc1nn2ccccc2c1-c1ccc2ncccc2c1 [Compound 7c, 6-(2-Methoxypyrazolo[1,5-a]pyridin-3-yl)quinoline] | – | – | –
19 | 2.7 | 0.10 | 9508 | 362 | 552 nm | – | – | COc1nn2c(N(C)C)cccc2c1-c1ccc2ncccc2c1 [Compound 9b, 2-Methoxy-N,N-dimethyl-3-(quinolin-6-yl)pyrazolo[1,5-a]pyridin-7-amine] | – | – | –
20 | – | – | – | 393 | n.e. | yellow light | – | COc1nn2ccccc2c1C=C(C#N)C#N [Compound 4a, 2-((2-Methoxypyrazolo[1,5-a]pyridin-3-yl)methylene)] | – | – | –
21 | 3.5 | <0.01 | 5178 | 378 | 470 nm | – | – | COc1nn2ccccc2c1/C=C/c1ccc(C#N)cc1 [Compound 5d, (E)-4-(2-(2-methoxypyrazolo[1,5-a]pyridin-3-yl)vinyl)benzonitrile] | – | – | –
22 | <1 | 0.08 | 3531 | 450 | 542 nm and 535 nm | – | – | Oc1nn2ccccc2c1/C=C/c1cc(F)c(-c2ccccc2)c(F)c1F [Compound 11b] | – | – | –
23 | 2 | <0.01 | 10379 | 315 | 468 nm | – | – | COc1nn2ccccc2c1NS(C)(=O)=O [Compound 3b, N-(2-methoxypyrazolo[1,5-a]pyridin-3-yl)methanesulfonamide] | – | 0.03 | –
24 | 2.8 | 0.52 | 3330 | 370 | 422 nm | – | – | COc1nn2ccccc2c1-c1ccc2ccccc2n1 [Compound 7a, 2-(2-Methoxypyrazolo[1,5-a]pyridin-3-yl)quinoline] | – | – | –
25 | 3.5 | <0.01 | 8964 | 350 | 510 nm | – | – | COc1nn2ccccc2c1/C=C/c1ccc(SC)cc1 [Compound 5b, (E)-2-methoxy-3-(4-(methylthio)styryl)pyrazolo[1,5-a]pyridine] | – | – | –
26 | – | <0.01 | 10169 | 312 | 457 nm | – | – | COc1nn2ccccc2c1NC(C)=O [Compound 3a, N-(2-methoxypyrazolo[1,5-a]pyridine-3-yl)acetamide] | – | 0.00 | –
27 | 5.1 | <0.01 | 6832 | 350 | – | – | – | COc1nn2c(Cl)cccc2c1-c1ccc2ncccc2c1 [Compound 9a, 6-(7-Chloro-2-methoxypyrazolo[1,5-a]pyridin-3-yl)quinoline] | – | – | –
28 | 3.5 | <0.01 | 9851 | 335 | 500 nm | – | – | COc1nn2ccccc2c1/C=C/c1ccccc1 [Compound 5a, (E)-2-methoxy-3-styrylpyrazolo[1,5-a]pyridine] | – | – | –
